From paper PMC3790851, “Improved Mass Spectrometry Assay For Plasma Hepcidin: Detection and Characterization of a Novel Hepcidin Isoform” (PLoS ONE, 2013)

Key:
in vitro = settings: human
Protocol: Samples were used for measurement of hepcidin between 4–7 hrs after blood drawing and/or pooled and/or stored in aliquots at various temperatures for prolonged periods of time.
Fresh samples were measured within 2–4 hrs hours after blood drawing and stored in aliquots at various temperatures for prolonged incubation.
Mass-to-charge (m/z) spectra were generated by using MALDI-TOF MS (Microflex LT, Bruker Daltonics). Spectra were analyzed by using Bruker Daltonics FlexAnalysis software. […] Total hepcidin concentration was defined as the sum of hepcidin-25, -24, -22, and -20 concentrations.
Using the novel heavy hepcidin-25 internal standard, we assessed changes in hepcidin-25 and the smaller isoforms in various samples containing various anticoagulants ex vivo at room temperature (RT), 4°C, −20°C and −80°C. More specifically, changes in hepcidin concentrations relative to those found in freshly collected samples were determined i) at storage at RT and 4°C on day 0 (fresh samples), 1 (14–22 hrs), 2, 3, and 7 days after sampling/storage, ii) at −20°C after 1 week, and after 1, 4 and 6 months of storage and iii) at −80°C at after 6 months of storage.

[1] = serum from 12 healthy controls; stable for; ref 35 Itkonen et al.; cited from earlier work

CC[C@H](C)[C@@H]1NC(=O)[C@@H](NC(=O)[C@@H](NC(=O)[C@@H]2CCCN2C(=O)[C@H](Cc2ccccc2)NC(=O)[C@H](Cc2c[nH]cn2)NC(=O)[C@@H](NC(=O)[C@@H](N)CC(=O)O)[C@@H](C)O)[C@@H](C)CC)CSSC[C@@H](C(=O)N[C@@H](CCCCN)C(=O)N[C@H](C(=O)O)[C@@H](C)O)NC(=O)[C@@H]2CSSC[C@H](NC(=O)[C@H](Cc3ccccc3)NC1=O)C(=O)N[C@H]1CSSC[C@H](NC(=O)[C@H](CCCCN)NC(=O)[C@H](CO)NC(=O)[C@H](CCCNC(=N)N)NC(=O)[C@H](Cc3c[nH]cn3)NC(=O)[C@@H]3CSSC[C@H](NC(=O)CNC1=O)C(=O)N3)C(=O)NCC(=O)N[C@@H](CCSC)C(=O)N2 [Hepcidin-25]
remaining at 1 mnt (in vitro; EDTA plasma): 94%
remaining at 4 mnts (in vitro; EDTA plasma): 92%
remaining at 6 months (in vitro; EDTA plasma): 88%
remaining at 168 h (in vitro; EDTA plasma): 89%
remaining at 672 h (in vitro; EDTA plasma): 99%
remaining at 1 mnt (in vitro; citrate plasma): 95%
remaining at 4 mnts (in vitro; citrate plasma): 102%
remaining at 6 mnts (in vitro; citrate plasma): 97%
remaining at 168 h (in vitro; citrate plasma): 97%
remaining at 1 mnt (in vitro; heparin plasma): 92%
remaining at 4 mnts (in vitro; heparin plasma): 100%
remaining at 6 mnts (in vitro; heparin plasma): 83%
remaining at 168 h (in vitro; heparin plasma): 96%
remaining at 672 h (in vitro; heparin plasma): 97%
remaining at 1 mnt (in vitro; serum): 96%
remaining at 4 mnts (in vitro; serum): 98%
remaining at 6 mnts (in vitro; serum): 99%
remaining at 168 h (in vitro; serum): 97%
stability at room temperature [1]: 1 days
Hepcidin level after one day at 4°C, EDTA plasma (average, % of fresh, 10 IC patients and 5 controls, results <1.0 nM deleted, CV (Hep-25/-24/-22/-20) 11/6/11/22, n = 15/8/6/9): 101%
Hepcidin level after one week at 4°C, EDTA plasma (average, % of fresh, 7 days, 10 IC patients and 5 controls, CV (Hep-25/-24/-22/-20) 9/8/18/21, n = 15/8/6/9, hepcidin-20 in stored EDTA plasma unreliable (additional peak)): 101%
stability at 4°C for 0–7 days (heparin and EDTA plasma (10 IC patients, 5 controls), citrate plasma and serum (5 controls)): remained stable
